Measurements from patent publication US20240383915A1, “OXAZEPINE COMPOUNDS AND USES THEREOF IN THE TREATMENT OF CANCER” (Genentech, Inc., priority 2021, published 2024).
Read-outs that look alike come from different tables or passages of the source.

Columns and labels:
[1] = biological target: KRas(G12V) (Homo sapiens (Human), UniProt P01116, G12V); assay: KRas(G12V) GDP HTRF (BODIPY-GDP exchange TR-FRET); format: biochemical
[2] = biological target: KRas (Homo sapiens (Human), UniProt P01116); assay: KRas GDP HTRF (BODIPY-GDP exchange TR-FRET); format: biochemical
Procedure, shortened: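 Inhibition of SOS1-mediated exchange of BODIPY-GDP on KRAS G12D, started with 3 nM recombinant human SOS1 and 300 nM BODIPY-GDP and read after 60 min. TR-FRET excitation 337 nm, ratio 520/490 nm ×10,000. IC50 from 4-parameter Hill fit of normalized data.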

[3] = system: SW480 cells; assay: SW480 proliferation assay; format: cell-based; details: read-out: SW480 Prolif IC50 (G12V)
[4] = system: PC-9 cells; assay: PC9 proliferation assay; format: cell-based, human; details: read-out: PC9 Prolif IC50 (G12V)

Sequence of KRas (P01116-2 other isoform, or with tags, fused parts or gaps): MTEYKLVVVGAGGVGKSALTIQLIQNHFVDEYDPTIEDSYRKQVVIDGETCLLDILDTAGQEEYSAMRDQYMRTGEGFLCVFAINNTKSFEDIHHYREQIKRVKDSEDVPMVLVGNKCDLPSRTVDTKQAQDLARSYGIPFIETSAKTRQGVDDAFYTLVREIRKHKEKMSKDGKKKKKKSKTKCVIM
Sequence of KRas(G12V) (P01116-2 other isoform, or with tags, fused parts or gaps G12V): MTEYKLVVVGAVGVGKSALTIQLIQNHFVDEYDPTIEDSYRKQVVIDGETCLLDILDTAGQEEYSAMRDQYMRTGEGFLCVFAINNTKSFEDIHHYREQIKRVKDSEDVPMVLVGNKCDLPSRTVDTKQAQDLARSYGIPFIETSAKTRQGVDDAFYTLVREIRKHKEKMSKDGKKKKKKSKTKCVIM

Row | Structure (SMILES) | IC50 [1] [nM] | IC50 [2] [nM] | IC50 ([3]; Homo sapiens, SW480, SW480) [nM] | IC50 ([4]; Homo sapiens, PC-9, PC9) [nM] | IC50 ([3]; SW480) [nM] | IC50 ([4]; PC9) [nM]
1 | COc1nc2c3c(c(Cl)c(-c4nc(N)cc(C)c4C(F)(F)F)c(F)c3n1)OCCN2[C@H](C)c1cccnc1N (atropisomer, axis not shown) [Example 155, 6-((R)-4-((R)-1-(2-aminopyridin-3-yl)ethyl)-8-chloro-10-fluoro-2-methoxy-5,6-dihydro-4H-[1,4]oxazepino[5,6,7-de]quinazolin-9-yl)-4-methyl-5-(trifluoromethyl)pyridin-2-amine] | 0.45 | 2.5 | 220 | 10000 |  | 
2 | Cc1cc(N)nc(-c2c(Cl)c3c4c(nc(OC[C@@]56CCCN5C[C@H](F)C6)nc4c2F)N([C@H](C)c2cncc(N)c2)CCO3)c1C(F)(F)F (atropisomer, axis not shown; (aS)) [Example 45, (R)-6-(4-((S)-1-(5-aminopyridin-3-yl)ethyl)-8-chloro-10-fluoro-2-(((2R,7aS)-2-fluorotetrahydro-1H-pyrrolizin-7a(5H)-yl)methoxy)-5,6-dihydro-4H-[1,4]oxazepino[5,6,7-de]quinazolin-9-yl)-4-methyl-5-(trifluoromethyl)pyridin-2-amine] | 0.23 | 0.27 | 50 | 6000 |  | 
3 | Cc1cc(N)nc(-c2c(Cl)c3c4c(nc(OC[C@@]56CCCN5C[C@H](F)C6)nc4c2F)N([C@H](C)c2cccnc2N)CCO3)c1C(F)(F)F (atropisomer, axis not shown; (aS)) [Example 48, 6-(4-((R)-1-(2-aminopyridin-3-yl)ethyl)-8-chloro-10-fluoro-2-(((2R,7aS)-2-fluoro-hexahydro-1H-pyrrolizin-7a-yl)methoxy)-5,6-dihydro-4H-[1,4]oxazepino[5,6,7-de]quinazolin-9-yl)-4-methyl-5-(trifluoromethyl)pyridin-2-amine] | 0.04 | 0.091 |  |  | 1.4 | 1500
4 | Cc1cc(N)nc(-c2c(Cl)c3c4c(nc(OC[C@@]56CCCN5C[C@H](F)C6)nc4c2F)N([C@@H]2CCCc4ccnc(N)c42)CCO3)c1C(F)(F)F (atropisomer, axis not shown; (aS)) [Example 65a, (R)-8-((R)-9-(6-amino-4-methyl-3-(trifluoromethyl)pyridin-2-yl)-8-chloro-10-fluoro-2-(((2R,7aS)-2-fluorotetrahydro-1H-pyrrolizin-7a(5H)-yl)methoxy)-5,6-dihydro-4H-[1,4]oxazepino[5,6,7-de]quinazolin-4-yl)-5,6,7,8-tetrahydroisoquinolin-1-amine] | 0.1 | 0.25 | 2.6 | 940 |  | 
5 | Cc1cc(N)nc(-c2c(F)c3c4c(nc(OC[C@@]56CCCN5C[C@H](F)C6)nc4c2F)N([C@H](C)c2cccnc2N)CCO3)c1C(F)(F)F (atropisomer, axis not shown; (aS)) [Example 66a, 6-((R)-4-((R)-1-(2-aminopyridin-3-yl)ethyl)-8,10-difluoro-2-(((2R,7aS)-2-fluorotetrahydro-1H-pyrrolizin-7a(5H)-yl)methoxy)-5,6-dihydro-4H-[1,4]oxazepino[5,6,7-de]quinazolin-9-yl)-4-methyl-5-(trifluoromethyl)pyridin-2-amine] | 0.05 | 0.12 | 3.1 | 2800 |  | 
6 | Cc1c(F)c(N)nc(-c2c(Cl)c3c4c(nc(OC[C@@]56CCCN5C[C@H](F)C6)nc4c2F)N([C@H](C)c2cccnc2N)CCO3)c1C(F)(F)F (atropisomer, axis not shown; (aS)) [Example 75a, 6-((R)-4-((R)-1-(2-aminopyridin-3-yl)ethyl)-8-chloro-10-fluoro-2-(((2R,7aS)-2-fluorotetrahydro-1H-pyrrolizin-7a(5H)-yl)methoxy)-5,6-dihydro-4H-[1,4]oxazepino[5,6,7-de]quinazolin-9-yl)-3-fluoro-4-methyl-5-(trifluoromethyl)pyridin-2-amine] | 0.05 | 0.066 | 1.1 | 890 |  | 
7 | CNc1cnc(N)c([C@@H](C)N2CCOc3c(Cl)c(-c4nc(N)cc(C)c4C(F)(F)F)c(F)c4nc(OC[C@@]56CCCN5C[C@H](F)C6)nc2c34)c1 (atropisomer, axis not shown; (aS)) [Example 79, 3-((R)-1-((R)-9-(6-amino-4-methyl-3-(trifluoromethyl)pyridin-2-yl)-8-chloro-10-fluoro-2-(((2R,7aS)-2-fluorotetrahydro-1H-pyrrolizin-7a(5H)-yl)methoxy)-5,6-dihydro-4H-[1,4]oxazepino[5,6,7-de]quinazolin-4-yl)ethyl)-N^5-methylpyridine-2,5-diamine] | 0.22 | 0.34 | 2.4 | 3100 |  | 
8 | Cc1cc(N)nc(-c2c(Cl)c3c4c(nc(OC[C@@]56CCCN5C[C@H](F)C6)nc4c2F)N([C@@H](C)c2nccnc2N)CCO3)c1C(F)(F)F (atropisomer, axis not shown; (aS)) [Example 80, 3-((S)-1-((R)-9-(6-amino-4-methyl-3-(trifluoromethyl)pyridin-2-yl)-8-chloro-10-fluoro-2-(((2R,7aS)-2-fluorotetrahydro-1H-pyrrolizin-7a(5H)-yl)methoxy)-5,6-dihydro-4H-[1,4]oxazepino[5,6,7-de]quinazolin-4-yl)ethyl)pyrazin-2-amine] | 8.2 | 23.6 | 940 | 1200 |  | 

Results, then the compound that gave them:

Row | IC50 [1] [nM] | IC50 [2] [nM] | IC50 ([3]; Homo sapiens, SW480, SW480) [nM] | IC50 ([4]; Homo sapiens, PC-9, PC9) [nM] | IC50 ([3]; SW480) [nM] | IC50 ([4]; PC9) [nM] | Structure (SMILES)
9 | 0.19 | 0.65 | 310 | 16000 |  |  | Cc1cc(N)nc(-c2c(Cl)c3c4c(nc(OCCO)nc4c2F)N([C@H](C)c2cccnc2N)CCO3)c1C(F)(F)F (atropisomer, axis not shown) [Example 156, 2-(((R)-9-(6-amino-4-methyl-3-(trifluoromethyl)pyridin-2-yl)-4-((R)-1-(2-aminopyridin-3-yl)ethyl)-8-chloro-10-fluoro-5,6-dihydro-4H-[1,4]oxazepino[5,6,7-de]quinazolin-2-yl)oxy)ethan-1-ol]
10 | 0.089 | 0.18 | 28 | 3100 |  |  | Cc1cc(N)nc(-c2c(Cl)c3c4c(nc(OC[C@H]5CC[C@@H]6COCCN65)nc4c2F)N([C@H](C)c2cccnc2N)CCO3)c1C(F)(F)F (atropisomer, axis not shown; (aR)) [Example 87b, 6-((R)-4-((R)-1-(2-aminopyridin-3-yl)ethyl)-8-chloro-10-fluoro-2-(((6R,8aR)-hexahydro-1H-pyrrolo[2,1-c][1,4]oxazin-6-yl)methoxy)-5,6-dihydro-4H-[1,4]oxazepino[5,6,7-de]quinazolin-9-yl)-4-methyl-5-(trifluoromethyl)pyridin-2-amine]
11 | 0.81 | 2.2 | 140 | 6400 |  |  | Cc1cc(N)nc(-c2c(Cl)c3c4c(nc(OC[C@H]5CC[C@@H]6COC(F)(F)CN56)nc4c2F)N([C@H](C)c2cccnc2N)CCO3)c1C(F)(F)F (atropisomer, axis not shown; (aR)) [Example 91b, 6-((R)-4-((R)-1-(2-aminopyridin-3-yl)ethyl)-8-chloro-2-(((6R,8aR)-3,3-difluorohexahydro-1H-pyrrolo[2,1-c][1,4]oxazin-6-yl)methoxy)-10-fluoro-5,6-dihydro-4H-[1,4]oxazepino[5,6,7-de]quinazolin-9-yl)-4-methyl-5-(trifluoromethyl)pyridin-2-amine]
12 | 0.17 | 0.49 | 100 | 8700 |  |  | Cc1cc(N)nc(-c2c(Cl)c3c4c(nc(OC[C@H]5CC[C@@H]6COCCN65)nc4c2F)N([C@H](C)c2cncnc2N)CCO3)c1C(F)(F)F (atropisomer, axis not shown; (aR)) [Example 102b, 5-((R)-1-((R)-9-(6-amino-4-methyl-3-(trifluoromethyl)pyridin-2-yl)-8-chloro-10-fluoro-2-(((6R,8aR)-hexahydro-1H-pyrrolo[2,1-c][1,4]oxazin-6-yl)methoxy)-5,6-dihydro-4H-[1,4]oxazepino[5,6,7-de]quinazolin-4-yl)ethyl)pyrimidin-4-amine]
13 | 0.08 | 0.2 | 20 | 3000 |  |  | Cc1cc(N)nc(-c2c(Cl)c3c4c(nc(OC[C@H]5CC[C@@H]6COCCCN65)nc4c2F)N([C@H](C)c2cccnc2N)CCO3)c1C(F)(F)F (atropisomer, axis not shown; (aR)) [Example 120b, 6-((R)-4-((R)-1-(2-aminopyridin-3-yl)ethyl)-8-chloro-10-fluoro-2-(((7R,9aR)-hexahydro-1H,3H-pyrrolo[2,1-c][1,4]oxazepin-7-yl)methoxy)-5,6-dihydro-4H-[1,4]oxazepino[5,6,7-de]quinazolin-9-yl)-4-methyl-5-(trifluoromethyl)pyridin-2-amine]
14 | 0.067 | 0.0659 | 6.1 | 7800 |  |  | Cc1cc(N)nc(-c2c(Cl)c3c4c(nc(OC[C@@]56CCCN5C[C@H](F)C6)nc4c2F)N([C@H](C)c2cncnc2N)CCO3)c1C(F)(F)F (atropisomer, axis not shown; (aS)) [Example 81, 5-((R)-1-((R)-9-(6-amino-4-methyl-3-(trifluoromethyl)pyridin-2-yl)-8-chloro-10-fluoro-2-(((2R,7aS)-2-fluorotetrahydro-1H-pyrrolizin-7a(5H)-yl)methoxy)-5,6-dihydro-4H-[1,4]oxazepino[5,6,7-de]quinazolin-4-yl)ethyl)pyrimidin-4-amine]
